Test results taken from patent US12692274B2, “Tetrahydroisoquinoline derivatives for the treatment of red blood disorders and inflammatory diseases” (Sanofi, priority 2020, dated 2026).
“And” between values parts separate entries of the source, which are not always exact repeats. Equal values may be shown once.

Assays:
[1] = tested on: NQO1 activation in BEAS-2B cells; experiment: BEAS-2B cellular MTT assay of NQO1 activation, 0.3% HSA; type: cell-based
Description: (§1) The growth rate of the BEAS-2B cells changed based on the lot of BEGM SingleQuots in the BEGM media. The cell growth rate was determined for each lot of SingleQuots. Ideally, cells were thawed into media with the new lot of SingleQuots and grown for two passages before testing; however, growing an active culture in the new lot of media for two to three passages before testing was also acceptable. Until the cell growth rate was determined, cells were seeded at different densities (cells/cm^2) in multiple tissue culture flasks in order to avoid the cells becoming more than 70% confluent. Cells should not go above 70% confluent as the cells differentiate when they become confluent. After the cells were grown in the new lot of media as described above, the number of cells per well needed to seed in the collagen plates was determined by seeding different numbers of cells per well and incubating for 48 hours. Cell confluency was checked after 48 hours and a cell number that results in just below to just above confluency was chosen for future plate seeding. Cell confluency in the assay plate was 95-100% confluent after 48 hours.
(§2) Cell media consists of BEBM basal media with the BEGM SingleQuots added. SingleQuots vials were thawed in the tissue culture hood, and GA-1000 (Gentamicin-Amphotericin) was not added.
(§3) If complete media was to be used immediately, BEBM basal media was warmed to room temperature in the hood, but not as high as 37° C. When the media was made for future use, SingleQuots were added to cold BEBM. One at a time, the SingleQuots components (except GA-1000) were added to the BEBM media. After removal of each component from the vial, the vial was rinsed with 0.5-1 mL of BEBM (depending on the volume the vial could hold) and added to the bottle of BEBM. Once all components were added, the label that comes with the SingleQuots kit was put on the bottle of media and the date was recorded. The bottle of media was mixed by gentle shaking. The media was not filtered. This media was stored at 4° C., with any leftover media disposed of one month after the date the SingleQuots were added.
(§4) BEAS-2B Cell Splitting Protocol:
(§5) First, Trypsin was warmed to 37° C. in the water bath. The media was then warmed to room temperature by letting it sit in the tissue culture hood, but not as high as 37° C. The media was aspirated from flask(s) and the flask(s) were washed with PBS. From 1 to 1.5 mL of warm trypsin were added to each flask and incubated at 37° C. until cells came off the flask on their own (~8-10 minutes), with no vigorous tapping on the flask to detach the cells.
(§6) Media was added to each flask to a total volume of 8-10 mL per flask and transferred to 15 mL conical tube(s). The cells were spun down at 120 g for 5 minutes, level 5 brake. The cells can be spun down between 100 and 150 g. Next the media was aspirated and the cell pellet was resuspended in fresh media by pipetting up and down and flicking the tube side to side. Any clumps of cells that remained were allowed to settle to the bottom of the tube before the top suspension was transferred into another tube, leaving about 1 mL of media in the original tube. The 1 mL of media and cell clumps were mixed with a single channel p1000 pipette, and any remaining clumps were removed before adding the cells in suspension to the other tube. The suspension was mixed with a pipette, an aliquot was removed, and the cells were counted. The amount of cells/cm^2 desired was calculated and the required volume of cells was added to tissue culture flasks. For example, use of SingleQuots with ~6000 cells/cm^2 was appropriate for a three day incubation and ~3000 cells/cm^2 for a five day incubation. Optimal cell density differed depending on lot of SingleQuots. The flasks were incubated at 37° C. in 5% CO2.
(§7) Day One: Seeding BEAS-2B Cells in Collagen Plates:
(§8) Plate(s) were either seeded with 0.3% or 0% HSA. While the protocol was similar for both conditions any differences are noted herein below. […]

[2] = molecular target: HIS-Keap1 full length / Biotin-Nrf2 (16-mer) (Homo sapiens, UniProt Q14145); experiment: biochemical
Chain of HIS-Keap1 full length / Biotin-Nrf2 (16-mer) (Q14145 whole entry): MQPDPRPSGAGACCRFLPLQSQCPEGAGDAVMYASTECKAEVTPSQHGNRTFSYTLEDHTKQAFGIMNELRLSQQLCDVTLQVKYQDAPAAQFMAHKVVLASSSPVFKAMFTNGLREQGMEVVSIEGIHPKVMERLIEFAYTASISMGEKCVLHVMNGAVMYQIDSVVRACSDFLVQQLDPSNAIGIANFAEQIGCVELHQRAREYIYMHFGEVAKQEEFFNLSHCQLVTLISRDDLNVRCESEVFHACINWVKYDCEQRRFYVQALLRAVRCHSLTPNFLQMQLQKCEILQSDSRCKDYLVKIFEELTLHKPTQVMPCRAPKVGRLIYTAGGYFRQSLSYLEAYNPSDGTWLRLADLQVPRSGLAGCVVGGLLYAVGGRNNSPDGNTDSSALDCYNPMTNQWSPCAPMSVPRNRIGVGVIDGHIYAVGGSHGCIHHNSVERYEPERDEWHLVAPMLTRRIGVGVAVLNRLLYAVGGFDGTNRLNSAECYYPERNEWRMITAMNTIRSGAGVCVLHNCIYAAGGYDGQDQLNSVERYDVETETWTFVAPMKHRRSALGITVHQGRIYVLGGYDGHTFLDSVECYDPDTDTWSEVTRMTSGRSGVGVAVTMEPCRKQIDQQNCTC

[3] = tested on: NQO1 activation in BEAS-2B cells; experiment: BEAS-2B cellular MTT assay of NQO1 activation, 0% HSA; type: cell-based
Description: as §1, §2, §3, §4, §5, §6, §7, §8

[4] = Homo sapiens, Serum Free W, read-out: BEAS EC50 (nM) Serum Free W
[5] = Serum Free W, read-out: BEAS EC50 (nM) Serum Free W
[6] = Homo sapiens, serum free, read-out: BEAS EC50 (nM) serum free
[7] = serum free, read-out: BEAS EC50 (nM) serum free

## Cc1c2ccc3c1nnn3CCOCCCc1ccc(c(F)c1)C(=O)N1CCc3ccc(cc3C1)[C@H]2CC(=O)O [Compound 363]
[1]; BEAS+ W, read-out: BEAS+ W EC50
  EC50: 711 nM
[1]; Homo sapiens, BEAS+ W, read-out: BEAS+ W EC50
  EC50: 682 nM
[2]
  IC50: 9 nM and 8.5 nM

## Cc1cc2ccc1C(=O)N1CCc3ccc(cc3C1)[C@H](CC(=O)O)c1ccc3c(c1)nnn3CCCCCCO2 [Compound 326]
[1]; Homo sapiens, BEAS+, read-out: BEAS+ EC50
  EC50: 804 nM
[2]
  IC50: 2.7 nM and 0.8 nM

## COc1cc2ccc1C(=O)N1CCc3ccc(cc3C1)C(CC(=O)O)c1cnc3c(nnn3CCCCCC2)c1C (stereo not shown) [Compound 103]
[3]; [4]
  EC50: 22.1 nM
[3]; [5]
  EC50: 36.8 nM
[2]
  IC50: 1.2 nM

## Cn1c2cc3cc(cnc31)CCCCCCn1nnc3c(Cl)c(ccc31)C(CC(=O)O)c1ccc3c(c1)CN(CC3)C2=O (stereo not shown) [Compound 199]
[3]; [6]
  EC50: 12.7 nM
[3]; [7]
  EC50: 11.9 nM
[2]
  IC50: 3.7 nM and 3.6 nM

## Cc1c2ccc3c1nnn3CCCCCCCc1ccc(cc1)C(=O)N1CCc3ccc(cc3C1)C2CC(=O)O (stereo not shown) [Compound 313]
[3]; [6]
  EC50: 8.8 nM
[2]
  IC50: < 0.1 nM and 0.4 nM

## COc1cc2ccc1CCCCCn1nnc3c(C)c(ccc31)C(CC(=O)O)c1ccc3c(c1)CN(CC3)C2=O (stereo not shown) [Compound 190]
[3]; [7]
  EC50: 1 nM
[2]
  IC50: 4.2 nM and 4.4 nM and 1.1 nM (2×)

## O=C(O)CC1c2ccc(nc2)OCCCCCc2ccc(nc2)C(=O)N2CCc3ccc1cc3C2 (stereo not shown) [Compound 193]
[3]; [6]
  EC50: 1140 nM
[3]; [7]
  EC50: 768 nM
[2]
  IC50: 29.1 nM and 31.5 nM

## Cc1c2cnc3c1nnn3CCCCCCc1ccc(cc1)C(=O)N1CCc3ccc(cc3C1)[C@@H]2CC(=O)O [Compound 138]
[3]; [6]
  EC50: 0.5 nM
[3]; [7]
  EC50: 0.3 nM
[2]
  IC50: 0.1 nM

## O=C(O)CC1c2ccc3c(c2)CN(CC3)C(=O)c2ccc(cc2F)OCCCCCCn2nnc3c(Cl)c1ccc32 (stereo not shown) [Compound 250]
[3]; [6]
  EC50: 16.4 nM
[3]; [7]
  EC50: 16.5 nM
[2]
  IC50: 2 nM and 1.9 nM

## Cc1cc2cnc1OCC/C=C/Cc1ccc(cc1)C(=O)N1CCc3ccc(cc3C1)[C@@H]2[C@H](C)C(=O)O [Compound 74]
[3]; [4]
  EC50: 4.7 nM
[3]; [5]
  EC50: 7.1 nM
[2]
  IC50: 24.4 nM and 36.4 nM

## Cc1c2ccc3c1nnn3CCCCCc1cnc(nc1)C(=O)N1CCc3ccc(cc3C1)C2CC(=O)O (stereo not shown) [Compound 204]
[3]; [6]
  EC50: 2880 nM
[3]; [7]
  EC50: 3290 nM
[2]
  IC50: 3 nM and 2.7 nM

## Cc1cc2ncc1[C@@H]([C@@H](C)C(=O)O)c1ccc3c(c1)CN(CC3)C(=O)c1ccc(cc1)C/C=C/CCO2 [Compound 61]
[3]; [4]
  EC50: 422 nM
[3]; [5]
  EC50: 245 nM
[2]
  IC50: 720 nM and 651 nM

## O=C(O)CC1c2ccc3c(c2)CN(CC3)C(=O)c2ccc(cc2C(F)(F)F)OCCCCCCn2nnc3cc1ccc32 (stereo not shown) [Compound 308]
[3]; [6]
  EC50: 910 nM
[2]
  IC50: < 0.1 nM

## C[C@H](C(=O)O)[C@H]1c2ccc(nc2)OCCCCCc2ccc(cc2)C(=O)N2CCc3ccc1cc3C2 [Compound 60]
[3]; [4]
  EC50: 333 nM
[3]; [5]
  EC50: 258 nM and 226 nM
[2]
  IC50: 580 nM and 614 nM

## Cc1c2ccc(c1C)C(=O)N1CCc3ccc(cc3C1)C(CC(=O)O)c1ccc3c(c1)nnn3CCCCCCO2 (stereo not shown) [Compound 312]
[3]; [6]
  EC50: 40.7 nM
[2]
  IC50: < 0.1 nM

## Cc1c2ccc3c1ncn3CCCCCCc1ccc(cc1)C(=O)N1CCc3ccc(cc3C1)[C@H]2CC(=O)O (single isomer, unassigned) [Compound 385]
[3]; [6]
  EC50: 2250 nM
[3]; [7]
  EC50: 2850 nM
[2]
  IC50: 238 nM and 244 nM

## Cc1c2ccc3c1nnn3C/C=C/CCCc1ccc(c(F)c1)C(=O)N1CCc3ccc(cc3C1)C2C(C)C(=O)O (stereo not shown) [Compound 375]
[3]; [4]
  EC50: 2.9 nM
[2]
  IC50: 1.4 nM

## Cc1c2ccc(c1C)C(=O)N1CCc3ccc(cc3C1)C(CC(=O)O)c1ccc3c(nnn3CCCCCCO2)c1C (stereo not shown) [Compound 309]
[3]; [6]
  EC50: 3.2 nM
[2]
  IC50: < 0.1 nM

## O=C(O)CC1c2ccc3c(c2)CN(CC3)C(=O)c2ccc(cn2)OCCCCCCn2nnc3cc1ccc32 (stereo not shown) [Compound 328]
[3]; [6]
  EC50: 6710 nM
[2]
  IC50: 0.9 nM and < 0.1 nM

## Cc1c2cnc3c1nnn3CCCCCCc1ccc(c(F)c1)C(=O)N1CCc3ccc(cc3C1)C2CC(=O)O (stereo not shown) [Compound 146]
[3]; [6]
  EC50: 0.2 nM
[2]
  IC50: 0.1 nM

## O=C(O)CC1c2cnc(nc2)OCCCCCc2ccc(c(Cl)c2)C(=O)N2CCc3ccc1cc3C2 (stereo not shown) [Compound 229]
[3]; [6]
  EC50: 1430 nM
[3]; [7]
  EC50: 2230 nM
[2]
  IC50: 10.4 nM

## Cc1c2ccc3c1nnn3CCCCCC(F)(F)Oc1ccc(cc1)C(=O)N1CCc3ccc(cc3C1)C2CC(=O)O (stereo not shown) [Compound 311]
[3]; [6]
  EC50: 10.4 nM
[2]
  IC50: 0.1 nM and < 0.1 nM

## Cc1c2n(C)c3ccc(cc13)CCCCCCn1nnc3c(C)c(cnc31)[C@H](CC(=O)O)c1ccc3c(c1)CN(CC3)C2=O [Compound 68]
[3]; [4]
  EC50: 0.4 nM
[3]; [5]
  EC50: 0.3 nM
[2]
  IC50: 0.3 nM

## O=C(O)CC1c2ccc3c(c2)CN(CC3)C(=O)c2cccc(c2)OC/C=C/CCn2nc3ccc1cc3n2 (stereo not shown) [Compound 437]
[2]
  IC50: 219 nM and 234 nM

## CC(C)(C(=O)O)C1c2ccc3c(c2)CN(CC3)C(=O)c2c(F)cc(cc2F)CCCCCn2nnc3cc1ccc32 (stereo not shown) [Compound 282]
[2]
  IC50: 0.4 nM (2×) and 0.3 nM (3×) and 1.1 nM

## O=C(O)CC1c2ccc3c(c2)CN(CC3)C(=O)c2ccc(cc2)CCCCCn2nnc3c(Cl)c1ccc32 (stereo not shown) [Compound 249]
[2]
  IC50: 1.1 nM and 1.3 nM

## Cc1c2ccc3c1nnn3CCCCCCc1ccc(c(F)c1)C(=O)N1CCc3ccc(cc3C1)[C@@H]2[C@H](C)C(=O)O [Compound 142]
[3]; [4]
  EC50: 34.5 nM
[3]; [5]
  EC50: 36.1 nM
[2]
  IC50: 11.3 nM and 11.6 nM

## Cc1c2ccc3c1nnn3CCCCCCc1ccc3c(c1)cc(n3CCC(F)(F)F)C(=O)N1CCc3ccc(cc3C1)[C@@H]2CC(=O)O [Compound 31]
[2]
  IC50: 2.1 nM and 1.2 nM

## Cc1c2ccc3nn(nc13)CC/C=C/COc1cccc(c1)C(=O)N1CCc3ccc(cc3C1)C2CC(=O)O (stereo not shown) [Compound 425]
[2]
  IC50: 4320 nM and 5390 nM

## O=C(O)CC1c2ccc(nc2)OCCCCCOc2cccc(c2)C(=O)N2CCc3ccc1cc3C2 (stereo not shown) [Compound 344]
[2]
  IC50: 4410 nM and 4850 nM

## O=C(O)C[C@@H]1c2ccc3c(c2)CN(CC3)Cc2ccc(cc2)OCCCCCCn2nnc3cc1ccc32 [Compound 405]
[2]
  IC50: 2150 nM and 2050 nM

## O=C(O)CC1c2ccc3c(c2)CN(CC3)C(=O)c2cccc(c2)OCCCCc2nnc3cc1ccn23 (stereo not shown) [Compound 415]
[2]
  IC50: 13200 nM and 8750 nM

## CC(C)(C(=O)O)C1c2ccc3c(c2)CN(CC3)C(=O)c2ccc(cc2F)CCCCCn2nnc3cc1ccc32 (stereo not shown) [Compound 271]
[2]
  IC50: 1.9 nM (2×) and 1.7 nM

## Cc1ccc2cc1C(=O)N1CCc3ccc(cc3C1)C(CC(=O)O)c1ccc3c(c1)nnn3CCCCCO2 (stereo not shown) [Compound 422]
[2]
  IC50: 11.3 nM and 12.2 nM

## Cc1c2ccc3c1nnn3C/C=C/CCc1ccc3c(c1)cc(n3C)C(=O)N1CCc3ccc(cc3C1)[C@H]2[C@H](C)C(=O)O [Compound 360]
[2]
  IC50: 0.9 nM
